Patent US6737383B1, “Herbicidal oxadiazolidines” (priority 1999, dated 2004)

Experiments:
Italian ryegrass = assay: Test E Italian ryegrass; type: in vivo, Lolium multiflorum; details: Preemergence; for I. Ryegrass plant response rating (0 to 100 scale): Rate 250 g/ha
winter wheat [1] = assay: Test E winter wheat; type: in vivo, Triticum aestivum; details: Postemergence; for Wheat (winter) plant response rating: Rate 250 g/ha
How it was run: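 Postemergence: 60:40 sandy loam/greenhouse potting mix, 1- to 4-leaf stage. Formulation: solvent plus surfactant. Assessment: visual comparison with untreated controls at ~21–28 days.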

winter barley = assay: Test E winter barley; type: in vivo, Hordeum vulgare; details: Preemergence; for Barley (winter) plant response rating (0 to 100 scale): Rate 250 g/ha
wild oat = assay: Test E wild oat; type: in vivo, Avena fatua; details: Preemergence; for Wild oat plant response rating (0 to 100 scale): Rate 250 g/ha
blackgrass [2] = assay: Test E blackgrass; type: in vivo, Alopecurus myosuroides; details: Preemergence; for Blackgrass plant response rating (0 to 100 scale): Rate 250 g/ha
bedstraw = assay: Test B pre/postemergence bedstraw; type: in vivo, Galium aparine
How it was run: (§1)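 Response is a visual 0-to-10 score relative to untreated plants, where 0 means no effect and 10 means complete control, taken twelve to sixteen days after application. Treatments went onto soil at planting and onto foliage of 1- to 4-leaf plants, using a surfactant-containing non-phytotoxic solvent.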

velvetleaf = assay: Test B pre/postemergence velvetleaf; type: in vivo, Abutilon theophrasti
How it was run: as §1

green foxtail = assay: Test E green foxtail; type: in vivo, Setaria viridis; details: Preemergence; for Green foxtail plant response rating (0 to 100 scale): Rate 250 g/ha
blackgrass [3] = assay: Test B pre/postemergence blackgrass; type: in vivo, Alopecurus myosuroides
How it was run: as §1

soybean = assay: Test B pre/postemergence soybean; type: in vivo, Glycine max
How it was run: as §1

winter wheat [4] = assay: Test E winter wheat; type: in vivo, Triticum aestivum; details: Preemergence; for Wheat (winter) plant response rating (0 to 100 scale): Rate 250 g/ha
[5] = Rate 500 g/ha, 0 to 100 scale where 0 is no effect and 100 is complete control
[6] = Rate 1000 g/ha, 0 to 100 scale where 0 is no effect and 100 is complete control
[7] = Rate 500 g/ha, 0 to 100 scale, 0 is no effect, 100 is complete control
[8] = Preemergence, Rate 62 g/ha, scale of 0 to 10 where 0 is no effect and 10 is complete control
[9] = Preemergence, Rate 125 g/ha, 0 is no effect, 10 is complete control
[10] = Preemergence, Rate 250 g/ha, scale 0 to 10, 0 is no effect, 10 is complete control
[11] = Preemergence, Rate 500 g/ha, scale of 0 to 10 where 0 is no effect and 10 is complete control
[12] = Rate 62 g/ha, Postemergence, scale of 0 to 10 where 0 is no effect and 10 is complete control
[13] = Rate 125 g/ha, Postemergence, scale 0 to 10
[14] = Rate 500 g/ha, Postemergence, scale 0 to 10
[15] = Rate 1000 g/ha, 0 to 100 scale, 0 no effect, 100 complete control
[16] = 0 to 100 scale where 0 is no effect and 100 is complete control
[17] = Preemergence, Rate 250 g/ha, scale of 0 to 10 where 0 is no effect and 10 is complete control
[18] = Rate 125 g/ha, Preemergence, scale of 0 to 10 where 0 is no effect and 10 is complete control
[19] = Rate 500 g/ha, Postemergence, scale 0 to 10, 0 no effect, 10 complete control

CC(C)N(C(=O)n1oc(=O)n(-c2ccc(OC(F)(F)F)cc2)c1=O)c1ccc(F)cc1 [Compound 202]
I. Ryegrass plant response rating (0 to 100 scale) (Italian ryegrass): 30 | Plant response rating, I. Ryegrass (Italian ryegrass; [5]): 60 | Plant response rating, I. Ryegrass (Italian ryegrass; [6]): 60 | Plant response rating, Wheat (winter) (winter wheat [1]; Rate 1000 g/ha, 0 to 100 scale, 0 is no effect and 100 is complete control): 60 | Plant response rating, Wheat (winter) (winter wheat [1]; [7]): 55 | Barley (winter) plant response rating (0 to 100 scale) (winter barley): 20 | Plant response rating, Barley (winter) (winter barley; [5]): 40 | Plant response rating, Barley (winter) (winter barley; [6]): 70 | Wild oat plant response rating (0 to 100 scale) (wild oat): 50 | Plant response rating, Wild oat (wild oat; [5]): 60 | Plant response rating, Wild oat (wild oat; [6]): 80 | Blackgrass plant response rating (0 to 100 scale) (blackgrass [2]): 30 | Plant response rating, Blackgrass (blackgrass [2]; [5]): 50 | Plant response rating, Blackgrass (blackgrass [2]; [6]): 30 | Bedstraw plant response rating (bedstraw; [8]): 0 | Bedstraw plant response rating (0 to 10 scale) (bedstraw; [9]): 0 | Bedstraw plant response rating (bedstraw; [10]): 6 | Plant response rating, Bedstraw (bedstraw; [11]): 2 | Bedstraw plant response rating (bedstraw; [12]): 1 | Bedstraw plant response rating (bedstraw; [13]): 2 | Plant response rating (0 to 10; 0 is no effect, 10 is complete control), Bedstraw (bedstraw; Rate 250 g/ha, Postemergence): 4 | Bedstraw plant response rating (bedstraw; [14]): 4 | Velvetleaf plant response rating (velvetleaf; [8]): 0 | Velvetleaf plant response rating (velvetleaf; [10]): 6 | Plant response rating, Velvetleaf (velvetleaf; [11]): 1 | Velvetleaf plant response rating (velvetleaf; [12]): 0 | Velvetleaf plant response rating (velvetleaf; [13]): 0 | Plant response rating (0 to 10; 0 is no effect, 10 is complete control), Velvetleaf (velvetleaf; Rate 250 g/ha, Postemergence): 0 | Green foxtail plant response rating (0 to 100 scale) (green foxtail): 70 | Plant response rating, Green foxtail (green foxtail; [5]): 85 | Plant response rating, Green foxtail (green foxtail; [6]): 100 | Blackgrass plant response rating (blackgrass [3]; [8]): 0 | Blackgrass plant response rating (0 to 10 scale) (blackgrass [3]; [9]): 0 | Blackgrass plant response rating (blackgrass [3]; [10]): 5 | Plant response rating, Blackgrass (blackgrass [3]; [11]): 2 | Blackgrass plant response rating (blackgrass [3]; [12]): 0 | Blackgrass plant response rating (blackgrass [3]; [13]): 3 | Plant response rating (0 to 10; 0 is no effect, 10 is complete control), Blackgrass (blackgrass [3]; Rate 250 g/ha, Postemergence): 5 | Blackgrass plant response rating (blackgrass [3]; [14]): 6 | Soybean plant response rating (soybean; [8]): 0 | Soybean plant response rating (0 to 10 scale) (soybean; [9]): 0 | Soybean plant response rating (soybean; [10]): 0 | Plant response rating, Soybean (soybean; [11]): 0 | Soybean plant response rating (soybean; [12]): 2 | Soybean plant response rating (soybean; [13]): 2 | Plant response rating (0 to 10; 0 is no effect, 10 is complete control), Soybean (soybean; Rate 250 g/ha, Postemergence): 3 | Soybean plant response rating (soybean; [14]): 3 | Wheat (winter) plant response rating (0 to 100 scale) (winter wheat [4]): 50 | Plant response rating, Wheat (winter) (winter wheat [4]; [5]): 40 | Plant response rating, Wheat (winter) (winter wheat [4]; [6]): 70

Cc1ccccc1N(C(=O)n1oc(=O)n(-c2ccccc2C)c1=O)C(C)C [Compound 236]
I. Ryegrass plant response rating (0 to 100 scale) (Italian ryegrass): 20 | Plant response rating, I. Ryegrass (Italian ryegrass; [5]): 40 | Plant response rating, I. Ryegrass (Italian ryegrass; [15]): 55 | Plant response rating, Wheat (winter) (winter wheat [1]; [6]): 10 | Wheat (winter) plant response rating (winter wheat [1]; [16]): 0 | Plant response rating, Wheat (winter) (winter wheat [1]; [7]): 0 | Barley (winter) plant response rating (0 to 100 scale) (winter barley): 20 | Plant response rating, Barley (winter) (winter barley; [5]): 40 | Plant response rating, Barley (winter) (winter barley; [15]): 50 | Wild oat plant response rating (0 to 100 scale) (wild oat): 20 | Plant response rating, Wild oat (wild oat; [5]): 30 | Plant response rating, Wild oat (wild oat; [15]): 50 | Blackgrass plant response rating (0 to 100 scale) (blackgrass [2]): 60 | Plant response rating, Blackgrass (blackgrass [2]; [5]): 60 | Plant response rating, Blackgrass (blackgrass [2]; [15]): 70 | Bedstraw plant response rating (bedstraw; [8]): 0 | Bedstraw plant response rating (bedstraw; [17]): 0 | Plant response rating, Bedstraw (bedstraw; [11]): 0 | Bedstraw plant response rating (bedstraw; [12]): 0 | Bedstraw plant response rating (bedstraw; [13]): 0 | Bedstraw plant response rating (bedstraw; [18]): 0 | Plant response rating (0 to 10; 0 is no effect, 10 is complete control), Bedstraw (bedstraw; Rate 250 g/ha, Postemergence): 0 | Bedstraw plant response rating (bedstraw; [19]): 4 | Velvetleaf plant response rating (velvetleaf; [8]): 0 | Velvetleaf plant response rating (velvetleaf; [17]): 0 | Plant response rating, Velvetleaf (velvetleaf; [11]): 0 | Velvetleaf plant response rating (velvetleaf; [12]): 0 | Velvetleaf plant response rating (velvetleaf; [13]): 0 | Velvetleaf plant response rating (velvetleaf; [18]): 0 | Plant response rating (0 to 10; 0 is no effect, 10 is complete control), Velvetleaf (velvetleaf; Rate 250 g/ha, Postemergence): 1 | Velvetleaf plant response rating (velvetleaf; [19]): 3 | Green foxtail plant response rating (0 to 100 scale) (green foxtail): 85 | Plant response rating, Green foxtail (green foxtail; [5]): 100 | Plant response rating, Green foxtail (green foxtail; [15]): 100 | Blackgrass plant response rating (blackgrass [3]; [8]): 0 | Blackgrass plant response rating (blackgrass [3]; [17]): 5 | Plant response rating, Blackgrass (blackgrass [3]; [11]): 5 | Blackgrass plant response rating (blackgrass [3]; [12]): 0 | Blackgrass plant response rating (blackgrass [3]; [13]): 0 | Blackgrass plant response rating (blackgrass [3]; [18]): 2 | Plant response rating (0 to 10; 0 is no effect, 10 is complete control), Blackgrass (blackgrass [3]; Rate 250 g/ha, Postemergence): 0 | Blackgrass plant response rating (blackgrass [3]; [19]): 0 | Soybean plant response rating (soybean; [8]): 0 | Soybean plant response rating (soybean; [17]): 0 | Plant response rating, Soybean (soybean; [11]): 0 | Soybean plant response rating (soybean; [12]): 1 | Soybean plant response rating (soybean; [13]): 1 | Soybean plant response rating (soybean; [18]): 0 | Plant response rating (0 to 10; 0 is no effect, 10 is complete control), Soybean (soybean; Rate 250 g/ha, Postemergence): 2 | Soybean plant response rating (soybean; [19]): 3 | Wheat (winter) plant response rating (0 to 100 scale) (winter wheat [4]): 0 | Plant response rating, Wheat (winter) (winter wheat [4]; [5]): 10 | Plant response rating, Wheat (winter) (winter wheat [4]; [15]): 20

CC(C)N(C(=O)n1oc(=O)n(CC(C)(C)C)c1=O)c1ccc(F)cc1 [Compound 246]
I. Ryegrass plant response rating (0 to 100 scale) (Italian ryegrass): 80 | Plant response rating, I. Ryegrass (Italian ryegrass; [5]): 90 | Plant response rating, I. Ryegrass (Italian ryegrass; [15]): 100 | Plant response rating, Wheat (winter) (winter wheat [1]; [6]): 0 | Wheat (winter) plant response rating (winter wheat [1]; [16]): 0 | Plant response rating, Wheat (winter) (winter wheat [1]; [7]): 0 | Barley (winter) plant response rating (0 to 100 scale) (winter barley): 40 | Plant response rating, Barley (winter) (winter barley; [5]): 50 | Plant response rating, Barley (winter) (winter barley; [15]): 60 | Wild oat plant response rating (0 to 100 scale) (wild oat): 50 | Plant response rating, Wild oat (wild oat; [5]): 65 | Plant response rating, Wild oat (wild oat; [15]): 85 | Blackgrass plant response rating (0 to 100 scale) (blackgrass [2]): 60 | Plant response rating, Blackgrass (blackgrass [2]; [5]): 100 | Plant response rating, Blackgrass (blackgrass [2]; [15]): 100 | Bedstraw plant response rating (bedstraw; [8]): 0 | Bedstraw plant response rating (bedstraw; [17]): 0 | Plant response rating, Bedstraw (bedstraw; [11]): 2 | Bedstraw plant response rating (bedstraw; [12]): 7 | Bedstraw plant response rating (bedstraw; [13]): 7 | Bedstraw plant response rating (bedstraw; [18]): 0 | Plant response rating (0 to 10; 0 is no effect, 10 is complete control), Bedstraw (bedstraw; Rate 250 g/ha, Postemergence): 9 | Bedstraw plant response rating (bedstraw; [19]): 9 | Velvetleaf plant response rating (velvetleaf; [8]): 0 | Velvetleaf plant response rating (velvetleaf; [17]): 4 | Plant response rating, Velvetleaf (velvetleaf; [11]): 5 | Velvetleaf plant response rating (velvetleaf; [18]): 2 | Velvetleaf plant response rating (velvetleaf; [19]): 3 | Green foxtail plant response rating (0 to 100 scale) (green foxtail): 100 | Plant response rating, Green foxtail (green foxtail; [5]): 100 | Plant response rating, Green foxtail (green foxtail; [15]): 100 | Blackgrass plant response rating (blackgrass [3]; [17]): 6 | Plant response rating, Blackgrass (blackgrass [3]; [11]): 10 | Blackgrass plant response rating (blackgrass [3]; [12]): 0 | Blackgrass plant response rating (blackgrass [3]; [13]): 2 | Blackgrass plant response rating (blackgrass [3]; [18]): 5 | Plant response rating (0 to 10; 0 is no effect, 10 is complete control), Blackgrass (blackgrass [3]; Rate 250 g/ha, Postemergence): 6 | Blackgrass plant response rating (blackgrass [3]; [19]): 8 | Soybean plant response rating (soybean; [8]): 0 | Soybean plant response rating (soybean; [17]): 0 | Plant response rating, Soybean (soybean; [11]): 2 | Soybean plant response rating (soybean; [18]): 0 | Soybean plant response rating (soybean; [19]): 4 | Wheat (winter) plant response rating (0 to 100 scale) (winter wheat [4]): 50 | Plant response rating, Wheat (winter) (winter wheat [4]; [15]): 50
